In patent US3989837A, “Pharmaceutical compositions” (Chinoin Gyogyszer-es Vegyeszeti Termekek Gyara RT, priority 1972, dated 1976):
Where “and” joins values, the source holds several entries; their conditions need not be identical. Identical values can stand only once.

Columns and labels:
[1] = tested on: cotton granuloma; assay: Cotton granuloma, comparison with Indomethacine (Table 6); format: in vivo, rat; details: male rats, oral daily 4 mg./kg., 7 days, p 0.001
Protocol: Two cotton beads, each weighing 23 to 27 mg., were implanted under the dorsal skin of the animals in aether narcosis, under semisterile conditions, along both sides of the vertebral column. The compound under examination was administered twice a day for 7 days in oral dosages of 0.2 ml./100 g. body weight, in a suspension formed with 1% methyl cellulose. On the 8th day the animals were killed by etheral overnarcosis, the granulomes were removed, dried at 50° C for 5 hours, and then weighed. The animals belonging to the control group were treated similarly, but they received suspending agent only. The percentage efficiacy was calculated from the weight differences of the granuloma tissues observed for the treated and control groups. The significance was examined by the t test.

[2] = tested on: rats; assay: Ulcerogeneous action on rats, comparison with Indomethacine (Table 3'); details: male rats, 5 days
[3] = tested on: writhing syndrome; assay: Writhing syndrome, comparison with Indomethacine (Table 7); format: in vivo, mouse; details: male mice
Protocol: The tests were carried out on male mice each weighing 15 to 18 g., starved for 16 hours prior to treatment. 0.1 ml./10 g. body weight of 1% acetic acid solution was injected intraperitoneally to the animals. The sterile inflammation occurred on the action of acetic acid provoked a characteristic syndrome (writhing). The number of writhings was counted during an observation period of 20 minutes, starting 15 minutes after the administration of acetic acid. The substance to be tested was administered orally as a suspension, in a dosage of 0.1 ml./10 g. body weight 2 to 4 hours before the acetic acid injection. The average number of writhings observed for the treated animals was compared to that observed in the control group, and the percentage inhibition was calculated from the difference.

[4] = tested on: mice; assay: Toxicity on mice after oral administration, single dosage (Table 1'); format: in vivo; details: male mice
Protocol: (§1) The tests were carried out on male mice weighing 25 to 30 g., not starved previously. The compounds were administered in a dosage of 0.2 ml. of suspension per 10 g. body weight. The individual dosages indicated in Table 1' were administered to 10 mice each. The given amount of active agent was added in a single dosage, and the animals were dept under observation for 7 days (= 168 hours). The number of deceased animals was recorded daily.
(§2) The LD50 values were calculated according to the Litchfied-Wilcoxon method, by also taking into account the number of animals perished within 168 hours from the administration.

[5] = as above; format: in vivo; details: mouse, in vivo, po; male mice, p.o., 168 hours; read-out: LD50
Protocol: as §1, §2

[6] = tested on: carrageenine oedema; assay: Rat paw oedema, carrageenine (Table 5'); format: in vivo; details: female rats, p.o. 10 mg./kg.; for Effect % (average), inhibition of carrageenine oedema: average of repeated tests
Protocol: (§3) Inflammatory plantar oedema was provided by the subplantar injection of 0.1 ml. of 5% kaoline or 0.5% carrageenine on female rats each weighing 110 to 130 g., starved for 24 hours. The dorsoplantar diameter of the test animals was measured with a double-armed instrument prior to the administration of the phlogistic (basic value) and at regular intervals (at 2, 3.5 and 5 hours for kaoline and at 1.5, 3 and 4.5 hours for carrageenine) after the administration of the phlogistic. […] The treatment was always carried out 1 hour before the administration of the phlogistic. The animals belonging to the control group received suspending agent only. In order to ensure a uniform hydration grade, 1 ml. of tap water was administered through a stomach tube to the animals simultaneously with the administration of the active agent. During the test period the animals were allowed to consume water ad libitum.
(§4) The effect was calculated from the difference of the increase in paw diameter observed in the treated and control groups. The daga are given as percentage efficiacy.
(§5) The significance level was examined by Student's t test. The significance levels are marked by asterisks; the values of the repeated tests are given separately.

[7] = tested on: kaoline oedema; assay: Rat paw oedema, kaoline (Table 4'); format: in vivo; details: female rats; for Effect % (average), inhibition of kaoline oedema: average of repeated tests
Protocol: as §3, §4, §5

With `COc1ccc2c(c1)c(CC(=O)O)c(C)n2C(=O)c1ccc(Cl)cc1` [Indomethacine, reference compound] the “Effect %, cotton granuloma” value [1] was 36.0%, the “Animals having lesions on the intestines” value ([2]; oral 4 mg./kg.) was 5% and the Perishment ([2]; oral 4 mg./kg.) was 0/20. For the same compound, the Survivals ([2]; oral 4 mg./kg.) was 20, the Ulcer index ([2]; oral 4 mg./kg.) was 0.45 and the Ulcer number ([2]; oral 4 mg./kg.) was 0.1. The “Animals having lesions on the intestines” value ([2]; oral 8 mg./kg.) was 40%, the Perishment ([2]; oral 8 mg./kg.) was 10/20 and the Survivals ([2]; oral 8 mg./kg.) was 10. The Ulcer index ([2]; oral 8 mg./kg.) was 0.3, the Ulcer number ([2]; oral 8 mg./kg.) was 0 and the “Effect %, writhing” value ([3]; p.o. 5 mg./kg., 2 hours) was 58.2% and 61.1%. For the same compound, the “Effect % average, writhing” value ([3]; p.o. 5 mg./kg., 2 hours) was 59.6%, the “Effect %, writhing” value ([3]; p.o. 5 mg./kg., 4 hours) was 65.7% and 43.7% and the “Effect % average, writhing” value ([3]; p.o. 5 mg./kg., 4 hours) was 54.7%. The “Effect %, writhing” value ([3]; p.o. 12.5 mg./kg., 2 hours) was 73.6% and 67.2%, the “Effect % average, writhing” value ([3]; p.o. 12.5 mg./kg., 2 hours) was 70.4% and the “Effect %, writhing” value ([3]; p.o. 12.5 mg./kg., 4 hours) was 85.8% and 70.0%. For the same compound, the “Effect % average, writhing” value ([3]; p.o. 12.5 mg./kg., 4 hours) was 77.9%, the Perished animals/treated animals ([4]; oral 50 mg./kg., 24 h) was 0/10 and the Perished animals/treated animals ([4]; oral 50 mg./kg., 48 h) was 0/10. For the same compound, the Perished animals/treated animals ([4]; oral 50 mg./kg., 72 h) was 0/10, the Perished animals/treated animals ([4]; oral 50 mg./kg., 96 h) was 0/10 and the Perished animals/treated animals ([4]; oral 50 mg./kg., 120 h) was 0/10. The Perished animals/treated animals ([4]; oral 50 mg./kg., 144 h) was 0/10, the Perished animals/treated animals ([4]; oral 50 mg./kg., 168 h) was 0/10 and the Perished animals/treated animals ([4]; oral 150 mg./kg., 24 h) was 0/10. The Perished animals/treated animals ([4]; oral 150 mg./kg., 48 h) was 0/10, the Perished animals/treated animals ([4]; oral 150 mg./kg., 72 h) was 0/10 and the Perished animals/treated animals ([4]; oral 150 mg./kg., 96 h) was 2/10. For the same compound, the Perished animals/treated animals ([4]; oral 150 mg./kg., 120 h) was 4/10, the Perished animals/treated animals ([4]; oral 150 mg./kg., 144 h) was 6/10 and the Perished animals/treated animals ([4]; oral 150 mg./kg., 168 h) was 6/10. The Perished animals/treated animals ([4]; oral 300 mg./kg., 24 h) was 0/10, the Perished animals/treated animals ([4]; oral 300 mg./kg., 48 h) was 0/10 and the Perished animals/treated animals ([4]; oral 300 mg./kg., 72 h) was 4/10. For the same compound, the Perished animals/treated animals ([4]; oral 300 mg./kg., 96 h) was 6/10, the Perished animals/treated animals ([4]; oral 300 mg./kg., 120 h) was 8/10 and the Perished animals/treated animals ([4]; oral 300 mg./kg., 144 h) was 10/10. The Perished animals/treated animals ([4]; oral 300 mg./kg., 168 h) was 10/10, the Perished animals/treated animals ([4]; oral 500 mg./kg., 24 h) was 0/10 and the Perished animals/treated animals ([4]; oral 500 mg./kg., 48 h) was 2/10. The Perished animals/treated animals ([4]; oral 500 mg./kg., 72 h) was 4/10, the Perished animals/treated animals ([4]; oral 500 mg./kg., 96 h) was 7/10 and the Perished animals/treated animals ([4]; oral 500 mg./kg., 120 h) was 9/10. The Perished animals/treated animals ([4]; oral 500 mg./kg., 144 h) was 10/10, the Perished animals/treated animals ([4]; oral 500 mg./kg., 168 h) was 10/10 and the Perished animals/treated animals ([4]; oral 700 mg./kg., 24 h) was 1/10. For the same compound, the Perished animals/treated animals ([4]; oral 700 mg./kg., 48 h) was 5/10, the Perished animals/treated animals ([4]; oral 700 mg./kg., 72 h) was 5/10 and the Perished animals/treated animals ([4]; oral 700 mg./kg., 96 h) was 7/10. The Perished animals/treated animals ([4]; oral 700 mg./kg., 120 h) was 9/10, the Perished animals/treated animals ([4]; oral 700 mg./kg., 144 h) was 9/10 and the Perished animals/treated animals ([4]; oral 700 mg./kg., 168 h) was 10/10. For the same compound, the Perished animals/treated animals ([4]; oral 900 mg./kg., 24 h) was 1/10, the Perished animals/treated animals ([4]; oral 900 mg./kg., 48 h) was 4/10 and the Perished animals/treated animals ([4]; oral 900 mg./kg., 72 h) was 6/10. The Perished animals/treated animals ([4]; oral 900 mg./kg., 96 h) was 8/10, the Perished animals/treated animals ([4]; oral 900 mg./kg., 120 h) was 10/10 and the Perished animals/treated animals ([4]; oral 900 mg./kg., 144 h) was 10/10. The Perished animals/treated animals ([4]; oral 900 mg./kg., 168 h) was 10/10, the LD50 at 168 h [5] was 140 mg/kg and the “Effect %, inhibition of carrageenine oedema” value ([6]; 1.5 hours) was 24.1% and 20.6%. The “Effect % (average), inhibition of carrageenine oedema” value ([6]; 1.5 hours) was 22.3%, the “Effect %, inhibition of carrageenine oedema” value ([6]; 3 hours) was 32.9% and 28.8% and the “Effect % (average), inhibition of carrageenine oedema” value ([6]; 3 hours) was 30.8%. The “Effect %, inhibition of carrageenine oedema” value ([6]; 4.5 hours) was 19.8% and 20.9%, the “Effect % (average), inhibition of carrageenine oedema” value ([6]; 4.5 hours) was 20.3% and the “Effect %, inhibition of kaoline oedema” value ([7]; p.o. 10 mg./kg., 2 hours) was 14.7% and 19.7%. The “Effect % (average), inhibition of kaoline oedema” value ([7]; p.o. 10 mg./kg., 2 hours) was 17.2%, the “Effect %, inhibition of kaoline oedema” value ([7]; p.o. 10 mg./kg., 3.5 hours) was 19.5% and 27.6% and the “Effect % (average), inhibition of kaoline oedema” value ([7]; p.o. 10 mg./kg., 3.5 hours) was 23.5%. For the same compound, the “Effect %, inhibition of kaoline oedema” value ([7]; p.o. 10 mg./kg., 5 hours) was 21.2% and 27.2%, the “Effect % (average), inhibition of kaoline oedema” value ([7]; p.o. 10 mg./kg., 5 hours) was 24.2% and the “Effect %, inhibition of kaoline oedema” value ([7]; p.o. 25 mg./kg., 2 hours) was 33.7% and 32.7%. For the same compound, the “Effect % (average), inhibition of kaoline oedema” value ([7]; p.o. 25 mg./kg., 2 hours) was 33.2%, the “Effect %, inhibition of kaoline oedema” value ([7]; p.o. 25 mg./kg., 3.5 hours) was 35.1% and 37.1% and the “Effect % (average), inhibition of kaoline oedema” value ([7]; p.o. 25 mg./kg., 3.5 hours) was 36.1%. For the same compound, the “Effect %, inhibition of kaoline oedema” value ([7]; p.o. 25 mg./kg., 5 hours) was 32.1% and 44.4% and the “Effect % (average), inhibition of kaoline oedema” value ([7]; p.o. 25 mg./kg., 5 hours) was 38.2%.
